How the values were obtained:
Oryza sativa [1] = test: Relieving activity against bensulfuron-methyl induced injury to Oryza sativa (rice) assessed as growth rate at 1 uM (Rbv = 46 to 53%); assay type: functional
Oryza sativa [2] = test: Effect on Oryza sativa (rice) assessed as growth rate at 10 uM relative to control; assay type: organism-based; details: in vivo
[3] = Hydrophobicity, log K of the compound; assay type: physicochemical; details: octanol/water
Oryza sativa [4] = test: Safener indices, ratio of compound effect of Oryza sativa (rice) growth rate to relieving activity against bensulfuron-methyl induced injury to Oryza sativa growth rate at 1 uM
Oryza sativa [5] = test: Relieving activity against bensulfuron-methyl induced injury to Oryza sativa (rice) assessed as growth rate at 10 uM (Rbv = 46 to 53%); assay type: functional
Oryza sativa [6] = test: Relieving activity against bensulfuron-methyl induced injury to Oryza sativa (rice) assessed as growth rate at 0.1 uM (Rbv = 46 to 53%); assay type: functional
Oryza sativa [7] = test: Effect on Oryza sativa (rice) assessed as growth rate at 0.1 uM relative to control; assay type: organism-based; details: in vivo
Oryza sativa [8] = test: Safener indices, ratio of compound effect of Oryza sativa (rice) growth rate to relieving activity against bensulfuron-methyl induced injury to Oryza sativa growth rate at 10 uM
Oryza sativa [9] = test: Effect on Oryza sativa (rice) assessed as growth rate at 1 uM relative to control; assay type: organism-based; details: in vivo
Oryza sativa [10] = test: Safener indices, ratio of compound effect of Oryza sativa (rice) growth rate to relieving activity against bensulfuron-methyl induced injury to Oryza sativa growth rate at 0.1 uM

| SMILES | Activity (Oryza sativa [1]) [%] | Activity (Oryza sativa [2]) [%] | log K [3] | Ratio (Oryza sativa [4]) | Activity (Oryza sativa [5]) [%] | Activity (Oryza sativa [6]) [%] | Activity (Oryza sativa [7]) [%] | Ratio (Oryza sativa [8]) | Activity (Oryza sativa [9]) [%] | Ratio (Oryza sativa [10]) |
| --- | --- | --- | --- | --- | --- | --- | --- | --- | --- | --- |
| Cc1cccc(NC(=O)N[C@H](C)c2ccccc2)c1 | 60 | 47 | 0.374 | 22 | 45 | 55 | 100 | 29 | 98 | 10 |
| C[C@@H](NC(=O)Nc1ccc(F)cc1F)c1ccccc1 | 61 | 93 | 0.394 | 21 | 82 | 53 | 100 | 66 | 100 | 4 |
| C[C@H](NC(=O)Nc1ccc(F)cc1)c1ccccc1 | 72 | 85 | 0.307 | 47 | 86 | 51 | 96 | 74 | 97 | 7 |
| C[C@@H](NC(=O)Nc1cc(Cl)cc(Cl)c1)c1ccccc1 | 63 | 99 | 0.703 | 25 | 69 | 58 | 99 | 37 | 99 | 14 |
| CC(C)c1ccccc1NC(=O)N[C@@H](C)c1ccccc1 | 48 | 93 | 0.487 | 7 | 52 | 46 | 99 | 15 | 96 | 1 |
| CCOC(=O)c1ccc(NC(=O)N[C@H](C)c2ccccc2)cc1 | 78 | 92 | 0.415 | 56 | 89 | 56 | 101 | 79 | 100 | 11 |
| C[C@H](NC(=O)Nc1cccc(Br)c1)c1ccccc1 | 80 | 99 | 0.512 | 59 | 92 | 66 | 100 | 85 | 100 | 31 |
| Cc1ccc(NC(=O)N[C@@H](C)c2ccccc2)cc1 | 86 | 100 | 0.367 | 73 | 91 | 72 | 100 | 82 | 99 | 45 |
| CCCCCc1ccc(NC(=O)N[C@H](C)c2ccccc2)cc1 | 65 | 97 | 0.912 | 27 | 69 | 54 | 100 | 38 | 101 | 3 |
| C[C@@H](NC(=O)Nc1cc(Cl)ccc1Cl)c1ccccc1 | 68 | 101 | 0.704 | 37 | 77 | 64 | 99 | 52 | 100 | 26 |
| Cc1cccc(NC(=O)N[C@@H](C)c2ccccc2)c1 | 79 | 100 | 0.374 | 58 | 89 | 63 | 99 | 79 | 100 | 27 |
| C[C@H](NC(=O)Nc1ccccc1F)c1ccccc1 | 81 | 65 | 0.367 | 65 | 78 | 73 | 98 | 68 | 92 | 47 |
| C[C@@H](NC(=O)Nc1cc(C(F)(F)F)ccc1F)c1ccccc1 | 55 | 60 | 0.64 | 28 | 59 | 53 | 87 | 40 | 70 | 13 |
| C[C@H](NC(=O)Nc1ccc(C(F)(F)F)cc1)c1ccccc1 | 85 | 94 | 0.537 | 72 | 93 | 67 | 94 | 86 | 94 | 36 |
| C[C@H](NC(=O)Nc1ccc(Cl)c(Cl)c1)c1ccccc1 | 78 | 99 | 0.61 | 57 | 90 | 70 | 98 | 81 | 97 | 39 |
| C[C@@H](NC(=O)Nc1cccc(F)c1F)c1ccccc1 | 66 | 90 | 0.435 | 31 | 85 | 53 | 100 | 73 | 99 | 5 |
| C[C@@H](NC(=O)Nc1ccccc1Cl)c1ccccc1 | 63 | 93 | 0.486 | 21 | 83 | 53 | 101 | 67 | 103 | 3 |
| C[C@H](NC(=O)Nc1ccc(F)c(F)c1)c1ccccc1 | 70 | 98 | 0.398 | 41 | 82 | 57 | 99 | 64 | 100 | 14 |
| CC(C)c1ccccc1NC(=O)N[C@H](C)c1ccccc1 | 48 | 17 | 0.487 | 3 | 30 | 43 | 103 | 24 | 101 | -9 |
| CC(C)c1ccc(NC(=O)N[C@H](C)c2ccccc2)cc1 | 67 | 49 | 0.577 | 47 | 49 | 49 | 99 | 34 | 79 | 7 |
| COc1ccc(NC(=O)N[C@@H](C)c2ccccc2)cc1 | 81 | 95 | 0.211 | 57 | 91 | 59 | 104 | 81 | 99 | 6 |
| CC(=O)c1cccc(NC(=O)N[C@@H](C)c2ccccc2)c1 | 83 | 94 | 0.245 | 38 | 89 | 65 | 96 | 80 | 95 | 35 |
| C[C@H](NC(=O)Nc1ccccc1)c1ccccc1 | 80 | 90 | 0.28 | 58 | 80 | 67 | 101 | 63 | 98 | 30 |
| C[C@H](NC(=O)Nc1cccc(Cl)c1Cl)c1ccccc1 | 96 | 101 | 0.646 | 91 | 98 | 89 | 100 | 96 | 100 | 76 |
| C[C@H](NC(=O)Nc1ccc(Cl)cc1Cl)c1ccccc1 | 80 | 99 | 0.688 | 59 | 87 | 68 | 100 | 73 | 100 | 33 |
| C[C@H](NC(=O)Nc1ccccc1C(F)(F)F)c1ccccc1 | 70 | 97 | 0.456 | 40 | 92 | 56 | 97 | 85 | 98 | 12 |
| C[C@H](NC(=O)Nc1c(F)cccc1F)c1ccccc1 | 61 | 99 | 0.238 | 22 | 81 | 53 | 100 | 62 | 99 | 6 |
| CC(=O)c1ccccc1NC(=O)N[C@@H](C)c1ccccc1 | 65 | 96 | 0.432 | 35 | 73 | 53 | 100 | 50 | 97 | 9 |
